From PubChem BioAssay (NCI)
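Dose response: 5 concentrations. Exposure: 48 h. Format: 96-well plates. Endpoint: linear interpolation; highest concentration if not reached. Definition used: TGI = concentration required for complete inhibition of growth.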

Assays:
Test in all cases: DTP human tumour cell line panel, 48 h
IGROV1 ovarian = tested on: IGROV1 ovarian
SK-MEL-28 melanoma = tested on: SK-MEL-28 melanoma
NCI-H522 lung = tested on: NCI-H522 lung
HOP-18 NSCLC = tested on: HOP-18 NSCLC
CAKI-1 renal = tested on: CAKI-1 renal
786-0 renal = tested on: 786-0 renal
KM20L2 colon = tested on: KM20L2 colon
A549 NSCLC = tested on: A549 NSCLC
LXFL 529 NSCLC = tested on: LXFL 529 NSCLC
NCI-H226 lung = tested on: NCI-H226 lung
HCT-116 colon = tested on: HCT-116 colon
HT29 colon = tested on: HT29 colon
MALME-3M melanoma = tested on: MALME-3M melanoma
EKVX NSCLC = tested on: EKVX NSCLC
RXF 393 renal = tested on: RXF 393 renal
HL-60(TB) leukemia = tested on: HL-60(TB) leukemia
SF-268 CNS = tested on: SF-268 CNS
TK-10 renal = tested on: TK-10 renal
SNB-19 CNS = tested on: SNB-19 CNS
NCI-H460 lung = tested on: NCI-H460 lung
SK-MEL-2 melanoma = tested on: SK-MEL-2 melanoma
SF-295 CNS = tested on: SF-295 CNS
KM12 colon = tested on: KM12 colon
COLO 205 colon = tested on: COLO 205 colon
M19-MEL melanoma = tested on: M19-MEL melanoma
OVCAR-8 ovarian = tested on: OVCAR-8 ovarian
LOX IMVI melanoma = tested on: LOX IMVI melanoma
DMS 114 small cell lung = tested on: DMS 114 small cell lung
RXF-631 renal = tested on: RXF-631 renal
HOP-62 NSCLC = tested on: HOP-62 NSCLC
OVCAR-3 ovarian = tested on: OVCAR-3 ovarian
SF-539 CNS = tested on: SF-539 CNS
UACC-257 melanoma = tested on: UACC-257 melanoma
HOP-92 NSCLC = tested on: HOP-92 NSCLC
SW-620 colon = tested on: SW-620 colon
ACHN renal = tested on: ACHN renal
UACC-62 melanoma = tested on: UACC-62 melanoma
SN12C renal = tested on: SN12C renal
SR leukemia = tested on: SR leukemia
RPMI-8226 leukemia = tested on: RPMI-8226 leukemia
SK-MEL-5 melanoma = tested on: SK-MEL-5 melanoma
NCI-H23 lung = tested on: NCI-H23 lung
HCT-15 colon = tested on: HCT-15 colon
HCC-2998 colon = tested on: HCC-2998 colon
DLD-1 colon = tested on: DLD-1 colon
SK-OV-3 ovarian = tested on: SK-OV-3 ovarian
U251 CNS = tested on: U251 CNS
DMS 273 small cell lung = tested on: DMS 273 small cell lung
CCRF-CEM leukemia = tested on: CCRF-CEM leukemia
MOLT-4 leukemia = tested on: MOLT-4 leukemia
SNB-75 CNS = tested on: SNB-75 CNS
OVCAR-4 ovarian = tested on: OVCAR-4 ovarian
XF 498 CNS = tested on: XF 498 CNS
OVCAR-5 ovarian = tested on: OVCAR-5 ovarian
K-562 leukemia = tested on: K-562 leukemia
M14 melanoma = tested on: M14 melanoma
SNB-78 CNS = tested on: SNB-78 CNS
UO-31 renal = tested on: UO-31 renal

Measured: TGI

CCOP(=O)(OCC)C1=NC=CC=CC1n1c(-c2ccccc2)nn(CC)c1=O (configuration not stated)
> 100 µM: IGROV1 ovarian | SK-MEL-28 melanoma | NCI-H522 lung | HOP-18 NSCLC | CAKI-1 renal | 786-0 renal | KM20L2 colon | A549 NSCLC | LXFL 529 NSCLC | NCI-H226 lung | HCT-116 colon | HT29 colon | MALME-3M melanoma | EKVX NSCLC | RXF 393 renal | HL-60(TB) leukemia | SF-268 CNS | TK-10 renal | SNB-19 CNS | NCI-H460 lung | SK-MEL-2 melanoma | SF-295 CNS | KM12 colon | COLO 205 colon | M19-MEL melanoma | OVCAR-8 ovarian | LOX IMVI melanoma | DMS 114 small cell lung | RXF-631 renal | HOP-62 NSCLC | OVCAR-3 ovarian | SF-539 CNS | UACC-257 melanoma | HOP-92 NSCLC | SW-620 colon | ACHN renal | UACC-62 melanoma | SN12C renal | SR leukemia | RPMI-8226 leukemia | SK-MEL-5 melanoma | NCI-H23 lung | HCT-15 colon | HCC-2998 colon | DLD-1 colon | SK-OV-3 ovarian | U251 CNS | DMS 273 small cell lung | CCRF-CEM leukemia | MOLT-4 leukemia

CCOC(=O)/C(=C\c1ccc[nH]1)C(=O)c1ccccc1
> 100 µM: SK-MEL-28 melanoma | NCI-H522 lung | HOP-18 NSCLC | CAKI-1 renal | 786-0 renal | KM20L2 colon | A549 NSCLC | LXFL 529 NSCLC | NCI-H226 lung | SNB-75 CNS | HCT-116 colon | HT29 colon | MALME-3M melanoma | EKVX NSCLC | OVCAR-4 ovarian | RXF 393 renal | HL-60(TB) leukemia | SF-268 CNS | TK-10 renal | XF 498 CNS | SNB-19 CNS | NCI-H460 lung | SK-MEL-2 melanoma | SF-295 CNS | KM12 colon | OVCAR-5 ovarian | COLO 205 colon | M19-MEL melanoma | OVCAR-8 ovarian | LOX IMVI melanoma | DMS 114 small cell lung | RXF-631 renal | HOP-62 NSCLC | OVCAR-3 ovarian | SF-539 CNS | UACC-257 melanoma | HOP-92 NSCLC | SW-620 colon | ACHN renal | UACC-62 melanoma | SN12C renal | K-562 leukemia | M14 melanoma | SR leukemia | RPMI-8226 leukemia | SK-MEL-5 melanoma | NCI-H23 lung | HCT-15 colon | HCC-2998 colon | DLD-1 colon | SNB-78 CNS | SK-OV-3 ovarian | UO-31 renal | U251 CNS | DMS 273 small cell lung | CCRF-CEM leukemia | MOLT-4 leukemia
